The source made the active and inactive calls. The rule behind the calls is not given here.
Key:
[1] = target: T1, Membrane-associated tyrosine- and threonine-specific cdc2-inhibitory kinase (Homo sapiens, UniProt Q99640); assay: Inhibition of human full length PKMYT1 expressed in HEK293 cells using EFS (247 to 259 residues) as substrate after 1 hr by fluorescence polarization immunoasay
T1 sequence (Q99640 whole entry): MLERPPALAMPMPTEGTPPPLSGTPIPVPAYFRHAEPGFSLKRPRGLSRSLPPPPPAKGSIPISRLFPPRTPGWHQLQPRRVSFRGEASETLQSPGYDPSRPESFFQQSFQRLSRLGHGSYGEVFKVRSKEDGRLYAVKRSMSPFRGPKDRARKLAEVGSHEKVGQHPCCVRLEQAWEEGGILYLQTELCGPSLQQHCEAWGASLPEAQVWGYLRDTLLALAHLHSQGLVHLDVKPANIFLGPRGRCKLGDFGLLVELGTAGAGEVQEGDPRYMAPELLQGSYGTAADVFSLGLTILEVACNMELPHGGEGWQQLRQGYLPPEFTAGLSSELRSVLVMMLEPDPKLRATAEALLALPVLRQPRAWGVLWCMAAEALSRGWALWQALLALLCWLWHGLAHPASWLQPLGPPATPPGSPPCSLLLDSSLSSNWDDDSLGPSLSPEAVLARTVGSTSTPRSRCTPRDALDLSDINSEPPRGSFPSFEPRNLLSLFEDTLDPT

[2] = target: T1, Membrane-associated tyrosine- and threonine-specific cdc2-inhibitory kinase; assay: Inhibition of N-[3',6'-dihydroxy-3-oxo-3H-spiro(2-benzofuran-1,9'-xanthen)-5-yl]-N'-[2-(4-{4-[N-(2-chloro-6-methylphenyl)-5-carboxamido]-thiazol-2-yl})-amino-2-methyl-pyrimid-6-yl)piperazinyl]-ethyl]thiourea binding to human PKMYT1 kinase doamin expressed in Escherichia coli BL21 after 120 mins by fluorescence polarization asay
[3] = target: T2, Membrane-associated tyrosine- and threonine-specific cdc2-inhibitory kinase (Homo sapiens) (UniProt Q99640); assay: Inhibition of human full length PKMYT1 expressed in HEK293 cells assessed as decrease in GST-tagged Cdk1 phosphorylation at tyrosine 15 at 5 to 20 uM after 1 hr by Western blot method relative to control; format: cell-based
T2 sequence (whole entry): T1 sequence (Q99640 whole entry)

[4] = target: T2, Membrane-associated tyrosine- and threonine-specific cdc2-inhibitory kinase (Homo sapiens); assay: Inhibition of PKMYT1 in human HT29 cells assessed as decrease in Cdk1 phosphorylation at tyrosine 15 at 4 uM after 24 hrs by Western blot method; format: cell-based

Compound	IC50 [1]	Ki [1]	IC50 [2]	Ki [2]	inhibition [3]	inhibition [4]
Cc1cc(O)cc(Nc2ccnc3cc(-c4ccccn4)ccc23)c1	543 nM	51.7 nM	9430 nM	6150 nM	Active	Active
NC(=O)c1cc(-c2ccncc2)cc(-c2ccccc2)c1N [GSK-625137A]	58000 nM	5520 nM	11400 nM	5810 nM	Active	–
Oc1cccc(Nc2ccnc3cc(-c4ccncc4)ccc23)c1	706 nM	67.2 nM	332 nM	201 nM	Active	–
COc1cc2ncnc(Nc3cccc(Cl)c3)c2cc1OC [TYRPHOSTIN AG-1478]	19600 nM	1870 nM	55000 nM	26200 nM	–	–
O=C(Nc1cccc(-c2nn3ncccc3c2-c2ccnc(Nc3cccnc3)n2)c1)c1c(F)cccc1F	7560 nM	720 nM	18900 nM	14700 nM	Active	–
NC(=O)c1cccc(Nc2nccc(Nc3cccc4[nH]ncc34)n2)c1 [GW782612X]	–	–	–	–	Active	–
Cc1cc(O)cc(C)c1/C=C/c1cncc(C(N)=O)c1 [GW435821X]	14500 nM	1380 nM	876 nM	522 nM	Active	–
COc1cc(Nc2ncc(C#N)c(Nc3ccccc3C(N)=O)n2)ccc1N1CCN(C)CC1	–	–	–	–	Active	Active

Results, then the compound that gave them:

IC50 [1]	Ki [1]	IC50 [2]	Ki [2]	inhibition [3]	inhibition [4]	Compound
8 nM	0.8 nM	31.1 nM	2 nM	–	–	CCN(CC)CCOc1ccc(Nc2ncc3cc(-c4c(Cl)cccc4Cl)c(=O)n(C)c3n2)cc1 [PD-0166285]
109 nM	10.4 nM	2700 nM	13500 nM	–	–	Cc1cc(Nc2ncc3cc(-c4c(Cl)cccc4Cl)c(=O)n(C)c3n2)ccc1F
115 nM	10.9 nM	151 nM	104 nM	Active	Active	CNC(=O)c1ccccc1Nc1nc(Nc2cccc(CS(C)(=O)=O)c2)ncc1C
270 nM	25.7 nM	352 nM	180 nM	Active	Active	CNC(=O)c1ccccc1Nc1nc(Nc2ccc(N3CCOCC3)cc2)ncc1Cl
24 nM	2.3 nM	55 nM	8.1 nM	–	–	Cn1c(=O)c(-c2c(Cl)cccc2Cl)cc2cnc(Nc3ccc(N4CCOCC4)cc3)nc21
